What was measured:
[1] = system: CD8+ cells from PBMC of healthy individuals positive for HLA-A24; assay: Gamma interferon production by peptide-induced human CD8+ cells; assay type: cell-based; details: IL-2 and APC; for gamma interferon production capability: FIG. 5D
Experimental: (§1) First, blood was collected from two healthy individuals positive for HLA-A24, to which 1/10 volume of 4% sodium citrate was added, and was overlaid on Ficoll-Paque (Amersham Inc.) and centrifuged (1500 rpm, 20 min, room temperature). The fraction of monocytes (PBMC) separated in the interface was cultured for 6 days under the stimulation with 10 μg/mL of each peptide, from which CD8+ cells were isolated by the MACS method using antibody-coupled magnetic beads (Miltenyi Inc). In order to estimate cytotoxic activity of the isolated CD8+ cells, they were cocultured with human colon cancer cell line COLO320 (HLA-A24^+ SAGE^+ HERV-H ^+ Env^+) as the target cell at a mixing ratio of [CD8+ cell:COLO320 tumor cell=50:1] for 6 hours. The killed tumor cells were detected using Immunocyto Cytotoxity Detection Kit (MBL inc.), and tumor-specific toxicity rates were calculated according to the protocol attached to the kit. Results are plotted in the graph of FIG. 5A.
In order to evaluate the gamma interferon production capability, 1×10^6 of CD8+ cells were stimulated by 1 or 10 μg/mL of each peptide for 24 hours in the presence of IL-2 (100 U/mL, Peprotech Inc.) and APC (5×10^6 cells) which was obtained by collecting the PBMCs freshly from a healthy individual and then inactivating them with mitomycin C. Amounts of gamma interferon contained in the culture supernatants were measured by Cytometric Bead Array kit for human (BD Biosciences Inc.). Results are plotted in the graph of FIG. 5B.
The gamma interferon production capability was evaluated by stimulating CD8+ cells with 0.1, 1 or 10 μg/mL of each peptide in the presence of IL-2 and APC. The results are plotted in the graph of FIG. 5D.

[2] = system: PKH67-labeled CD8+ cells in SCID mice; assay: In vivo proliferation of peptide-induced CD8+ cells in immunodeficiency mice; design: species or system mouse; details: FIG. 8; for content of CD8+ cells in vivo: SCID mice, peptide 100 μg per animal via tail vein, 5 days, spleen and peripheral blood, versus no peptide administered
Experimental: In the same method as described in Example 4, CD8+ cells were obtained by culturing PBMCs with the stimulation of HERV-H#1 (final concentration 10 μg/mL). The CD8+ cells for a control group were obtained by culturing under the stimulation by NY-ESO-1 peptide (SEQ ID NO: 23) in place of HERV-H#1 at the same concentration. The CD8+ cells thus obtained were fluorescence-labeled by mixing with a fluorescent dye PKH67 (Sigma Corp.) and incubating for 10 min.
The PKH67-labeled CD8+ cells (2×10^6 cells), PBMCs (2×10^7 cells) collected from the same healthy individual, and a peptide (HERV-H Env or NY-ESO-1 (control groups) at 100 μg per animal) were injected via the tail vein of immunodeficiency mice (the SCID mice, CLEA Japan Inc.). Spleen cells and peripheral blood cells were collected from the mice on 5 days after the administration, and the content of PKH67-labeled CD8+ cells was measured by flow cytometry (BD Inc.). Mice treated similarly except that no peptide was administered were used for a control experiment.

[3] = system: human pancreatic tumor cell line Panc-1; assay: Toxicity of peptide-induced CD8+ cells (HLA-A02 positive PBMC) against Panc-1; assay type: cell-based; details: two HLA-A02 positive healthy individuals; FIG. 5E
[4] = system: human colon cancer cell line COLO320; assay: Toxicity of peptide-induced CD8+ cells (HLA-A24 positive PBMC) against COLO320; assay type: cell-based
Experimental: as §1
The toxicity against tumor cells was evaluated by setting the ratio of CD8+ cells:COLO320 tumor cells to 6.25:1, 12.5:1, 25:1 or 50:1. The results are plotted in the graph of FIG. 5C.

[5] = system: CD8+ cells of genetically modified mice expressing HLA-A24 (A24-Tg); assay: Gamma interferon production by CD8+ cells of peptide-immunized HLA-A24 transgenic mice; assay type: cell-based, mouse; details: for gamma interferon producing activity at lower concentrations: peptide below 2 μg/mL, normalized to 10 μg/mL as 100%
Experimental: First, dendritic cell precursors were isolated from bone marrow cells of A24-Tg mice using LineagePanel Streptavidin Plus Magnetic Particles-DM (BD Biosciences Inc.) and cultured for 6 days in the presence of GM-CSF (10 ng/mL, Peprotech Inc.) to induce their differentiation. The dendritic cells thus obtained were cultured for 6 hours in the presence of each of the peptides having the sequences shown below (10 μg/mL, synthesized by Invitrogen Inc.), and then injected subcutaneously to genetically modified mice expressing HLA-A24 at 5×10^6 cells per mouse for immunization. In addition, SAGE which has been identified as a testicular tumor antigen and for which a HLA-A24-restricted peptide has been established, was used for a positive control experiment (Cancer Research 60:3848-3855, 2000), and dendritic cells not stimulated by a peptide were used as the negative control.
Spleen cells were collected from the mice one week after the immunization with each of the peptides, and were cultured under the stimulation by 10 μg/mL of the same peptide as used for immunization for 6 days, from which CD8+ cells were isolated by the MACS method using antibody-coupled magnetic beads from Miltenyi Inc . In order to produce cytokine at a higher level, the CD8+ cells (1×10^6) were further stimulated for 24 hours by 0.08 to 10 μg/mL of the same peptide in the presence of APC (1×10^7 cells) that was obtained by collecting the spleen cells freshly from a HLA-A24 expressing-genetically modified mouse and then inactivating the cells with mitomycin C. Amounts of gamma interferon contained in the culture supernatants were measured by Cytometric Bead Array kit for mouse (BD Biosciences Inc.).

[6] = system: Clone F3 (Panc-1 cells in which the snail gene was forcibly expressed); assay: Cell growth of Clone F3 after siRNA transfection; assay type: cell-based, human; details: F3 cells cultured 2 to 3 days after siRNA transfection; in contrast to untreated cells and control siRNA; FIG. 3A
Experimental: First, snail cDNA (CDS 71-865, 795 bp) was amplified by PCR using the Panc-1 cells that had been stimulated with TGF-beta known as an EMT-inducing agent, and was inserted into the EcoR I-Xho I restriction sites of pcDNA3.1 (+) plasmid vector (Invitrogen Inc.) having a G418 resistance gene. The vector was introduced into the tumor cell lines by electroporation. The cells were cultured for 2 weeks and then drug-resistant cells were selected with G418 (2 mg/mL) and cloned.
In this example, the expression of HERV-H env gene was suppressed in Clone F3 and cell invasion capability and growth rate were measured.
(§2) First, 5×10^4 of F3 cells, as well as F3 cells (#1 to #4, Invitrogen Inc.) that had been cultured for 2 to 3 days after transfected with each of the 4 kinds of HERV-H env gene specific-siRNAs (shown below) by PEI complex method (Polyplus Inc.), were counted. The numbers of cells as plotted in the graph of FIG. 3A were taken as a standard of the growth rates.
(§3) For control experiments, F3 cells (Control) transfected with a control oligonucleotide from Invitrogen, F3 cells (siRNA-snail) transfected with snail gene specific-siRNA (SiRNA-snail #1) (shown below) and a Panc-1 cell line (Parent) were used.

[7] = system: Clone F3 (Panc-1 cells in which the snail gene was forcibly expressed); assay: Cell invasion capability of Clone F3 (matrigel Invasion Chamber); assay type: cell-based, human; details: F3 cells transfected with siRNA; matrigel-coated membrane, 4 hours; FIG. 3B
Source text: as §2
Then, the recovered cells were placed on the upper surface of the Invasion Chamber (pore size 8 μm, BD Bioscience Inc.) whose membrane was coated with matrigel, and cultured for 4 hours (37° C., 5% CO2). After cells remaining on the upper surface of the membrane were removed completely, the cells invaded into the lower surface of the membrane were fixed and stained with Crystal Violet solution and counted under a microscope to evaluate the cell invasion capability.
as §3

[8] = lower peptide concentration (0.1 μg/mL)
[9] = peptide concentrations equal to or higher than 1 μg/mL

Substance: LLMWITQCF (listed as Homo sapiens) [NY-ESO-1, HLA-A24-restricted tumor antigen peptide clinically used in peptide vaccine treatments, reference compound]
- gamma interferon production capability [1, 8]: significantly reduced
- gamma interferon production capability [1, 9]: best production
- content of CD8+ cells in vivo [2]: higher content of CD8+ cells

Substance: SYLHHTINL (listed as Homo sapiens) [HERV-H#1]
- toxicity against tumor cells (killed Panc-1) [3]: highest toxicity
- gamma interferon production capability [1, 8]: still sufficient to induce gamma interferon production
- gamma interferon production ([1]; peptide 10 μg/mL, 24 hours, FIG. 5B): significantly higher production than the other peptides
- gamma interferon production capability [1, 9]: second best after NY-ESO-1
- toxicity against tumor cells (COLO320) ([4]; E:T ratio equal to or more than 25:1, FIG. 5C): highest toxicity
- toxicity against tumor cells (killed COLO320) ([4]; two HLA-A24 positive healthy individuals, CD8+ cell:COLO320 = 50:1, 6 hours, FIG. 5A): highest
- content of CD8+ cells in vivo [2]: higher content of CD8+ cells
- self-proliferation of the induced CD8+ cells ([2]; no peptide administered to the mice, versus CD8+ cells induced by NY-ESO-1 peptide): less active
- proliferation activity of the induced CD8+ cells ([2]; peptides administered to the mice, versus CD8+ cells induced by NY-ESO-1 peptide): higher than that of the CD8+ cells induced by NY-ESO-1 peptide
- TCR-binding affinity ([5]; inferred from the concentration dependence of gamma interferon production, P<0.001, t-test): significantly higher than the other peptides
- gamma interferon producing activity at lower concentrations ([5]; FIG. 4B): maintained

Substance: FYSLLLYSL (listed as Homo sapiens) [HERV-H#2]
- amounts of gamma interferon produced (comparison among the HERV-H Env peptides) ([5]; peptide 0.08 to 10 μg/mL, FIG. 4B): highest activity
- gamma interferon producing activity at lower concentrations ([5]; FIG. 4B): significantly reduced

Substance: NYAEPPWPL (listed as Homo sapiens) [HERV-H#3]
- gamma interferon producing activity at lower concentrations ([5]; FIG. 4B): significantly reduced

Substance: siRNA-snail: snail gene specific-siRNA; sense GCGAGCUGCAGGACUCUAAdTdT (SEQ ID NO: 18), antisense SEQ ID NO: 19 (sense GCGAGCUGCAGGACUCUAATT; antisense UUAGAGUCCUGCAGCUCGCTT; dTdT overhangs, further chemistry not given here)
- cell growth (numbers of cells) [6]: strongly suppressed
- cell invasion capability [7]: significantly reduced

From patent publication US8323659B2, “Method for diagnosing and/or treating tumor” (Keio University, priority 2008, dated 2012)
